Measured values as given in ChEMBL document CHEMBL1145511, “Comparative activities of daptomycin, linezolid, and tigecycline against catheter-related methicillin-resistant Staphylococcus bacteremic isolates embedded in biofilm” (2007).
In brackets after ≈: the same amount, converted by molar mass. Activity calls are given as the source filed them. No cut-off for these calls is given here.

Columns and labels:
[1] = system: Staphylococcus aureus; experiment: Antibacterial activity against methicillin-resistant Staphylococcus aureus after 24 hrs by silicone disk biofilm colonization method; format: functional, organism-based
[2] = system: Staphylococcus aureus; experiment: Antibacterial activity against methicillin-resistant Staphylococcus aureus at 4 hrs daily exposure for 3 days; format: functional, organism-based
[3] = system: Staphylococcus aureus; experiment: Antibacterial activity against methicillin-resistant Staphylococcus aureus at 4 hrs daily exposure for 2 days; format: functional, organism-based
[4] = system: Staphylococcus aureus; experiment: Antibacterial activity against methicillin-resistant Staphylococcus aureus at 4 hrs daily exposure for 5 day; format: functional, organism-based
[5] = system: Staphylococcus aureus; experiment: Antibacterial activity against methicillin-resistant Staphylococcus aureus 4913 at 4 hrs daily exposure for 5 days by broth microdilution method; format: functional
[6] = system: Staphylococcus aureus; experiment: Antibacterial activity against methicillin-resistant Staphylococcus aureus 4930 at 4 hrs daily exposure for 5 days by broth microdilution method; format: functional
[7] = system: Staphylococcus aureus; experiment: Antibacterial activity against methicillin-resistant Staphylococcus aureus 5004 at 4 hrs daily exposure for 5 days by broth microdilution method; format: functional
[8] = system: Staphylococcus aureus; experiment: Antibacterial activity against methicillin-resistant Staphylococcus aureus 4803 at 4 hrs daily exposure for 1 day by broth microdilution method; format: functional
[9] = system: Staphylococcus aureus; experiment: Antibacterial activity against methicillin-resistant Staphylococcus aureus 4913 at 4 hrs daily exposure for 1 day by broth microdilution method; format: functional
[10] = system: Staphylococcus aureus; experiment: Antibacterial activity against methicillin-resistant Staphylococcus aureus 4930 at 4 hrs daily exposure for 1 day by broth microdilution method; format: functional
[11] = system: Staphylococcus aureus; experiment: Antibacterial activity against methicillin-resistant Staphylococcus aureus 5098 at 4 hrs daily exposure for 1 day by broth microdilution method; format: functional
[12] = system: Staphylococcus aureus; experiment: Antibacterial activity against methicillin-resistant Staphylococcus aureus 5004 at 4 hrs daily exposure for 1 day by broth microdilution method; format: functional
[13] = system: Staphylococcus aureus; experiment: Antibacterial activity against methicillin-resistant Staphylococcus aureus 859 at 4 hrs daily exposure for 1 day by broth microdilution method; format: functional
[14] = system: Staphylococcus aureus; experiment: Antibacterial activity against methicillin-resistant Staphylococcus aureus 4875 at 4 hrs daily exposure for 1 day by broth microdilution method; format: functional
[15] = system: Staphylococcus aureus; experiment: Antibacterial activity against methicillin-resistant Staphylococcus aureus 4342 at 4 hrs daily exposure for 1 day by broth microdilution method; format: functional
[16] = system: Staphylococcus aureus; experiment: Antibacterial activity against methicillin-resistant Staphylococcus aureus 293 at 4 hrs daily exposure for 1 day by broth microdilution method; format: functional
[17] = system: Staphylococcus aureus; experiment: Antibacterial activity against methicillin-resistant Staphylococcus aureus 789 at 4 hrs daily exposure for 1 day by broth microdilution method; format: functional
[18] = system: Staphylococcus aureus; experiment: Antibacterial activity against methicillin-resistant Staphylococcus aureus 4803 at 4 hrs daily exposure for 5 days by broth microdilution method; format: functional
[19] = system: Staphylococcus aureus; experiment: Antibacterial activity against methicillin-resistant Staphylococcus aureus 4875 at 4 hrs daily exposure for 5 days by broth microdilution method; format: functional
[20] = system: Staphylococcus aureus; experiment: Antibacterial activity against methicillin-resistant Staphylococcus aureus 4342 at 4 hrs daily exposure for 5 days by broth microdilution method; format: functional
[21] = system: Staphylococcus aureus; experiment: Antibacterial activity against methicillin-resistant Staphylococcus aureus 293 at 4 hrs daily exposure for 5 days by broth microdilution method; format: functional
[22] = system: Staphylococcus aureus; experiment: Antibacterial activity against methicillin-resistant Staphylococcus aureus 789 at 4 hrs daily exposure for 5 days by broth microdilution method; format: functional, organism-based
[23] = system: Staphylococcus aureus; experiment: Antibacterial activity against methicillin-resistant Staphylococcus aureus 5098 at 4 hrs daily exposure for 5 days by broth microdilution method; format: functional
[24] = system: Staphylococcus aureus; experiment: Antibacterial activity against methicillin-resistant Staphylococcus aureus 859 at 4 hrs daily exposure for 5 days by broth microdilution method; format: functional

SMILES | Activity [1] | Activity [3] | Activity [4] | MIC [5] [µg/mL] | MIC [8] [µg/mL] | MIC [9] [µg/mL] | MIC [10] [µg/mL] | MIC [11] [µg/mL] | MIC [12] [µg/mL] | MIC [13] [µg/mL] | MIC [14] [µg/mL] | MIC [15] [µg/mL] | MIC [16] [µg/mL] | MIC [17] [µg/mL] | Activity [22] | also measured
CN(C)c1cc(NC(=O)CNC(C)(C)C)c(O)c2c1C[C@H]1C[C@H]3[C@H](N(C)C)C(O)=C(C(N)=O)C(=O)[C@@]3(O)C(O)=C1C2=O | Active |  |  |  |  |  |  |  |  |  |  |  |  |  |  | Activity [2]: Active
CCCCCCCCCC(=O)N[C@@H](Cc1c[nH]c2ccccc12)C(=O)N[C@H](CC(N)=O)C(=O)N[C@@H](CC(=O)O)C(=O)N[C@@H]1C(=O)NCC(=O)N[C@@H](CCCN)C(=O)N[C@@H](CC(=O)O)C(=O)N[C@H](C)C(=O)N[C@@H](CC(=O)O)C(=O)NCC(=O)N[C@H](CO)C(=O)N[C@@H]([C@H](C)CC(=O)O)C(=O)N[C@@H](CC(=O)c2ccccc2N)C(=O)O[C@@H]1C | Active | Active |  |  |  |  |  |  |  |  |  |  |  |  |  | 
CN(C)c1ccc(O)c2c1C[C@H]1C[C@H]3[C@H](N(C)C)C(O)=C(C(N)=O)C(=O)[C@@]3(O)C(O)=C1C2=O | Active | Active |  |  |  |  |  |  |  |  |  |  |  |  |  | 
CN[C@H](CC(C)C)C(=O)N[C@H]1C(=O)N[C@@H](CC(N)=O)C(=O)N[C@H]2C(=O)N[C@H]3C(=O)N[C@H](C(=O)N[C@H](C(=O)O)c4cc(O)cc(O)c4-c4cc3ccc4O)[C@H](O)c3ccc(c(Cl)c3)Oc3cc2cc(c3O[C@@H]2O[C@H](CO)[C@@H](O)[C@H](O)[C@H]2O[C@H]2C[C@](C)(N)[C@H](O)[C@H](C)O2)Oc2ccc(cc2Cl)[C@H]1O |  |  | inactive |  |  |  |  |  |  |  |  |  |  |  |  | 
CC(=O)NC[C@H]1CN(c2ccc(N3CCOCC3)c(F)c2)C(=O)O1 [LINEZOLID] |  |  | inactive | 8 (≈ 23.7 µM) | 0.5 (≈ 1.48 µM) | 0.5 (≈ 1.48 µM) | 0.5 (≈ 1.48 µM) | 0.25 (≈ 0.741 µM) | 0.5 (≈ 1.48 µM) | 0.5 (≈ 1.48 µM) | 0.5 (≈ 1.48 µM) | 1 (≈ 2.96 µM) | 1 (≈ 2.96 µM) | 0.5 (≈ 1.48 µM) | Active | Activity [6]: Active; Activity [7]: Active; Activity [18]: Active; Activity [19]: Active; Activity [20]: Active; Activity [21]: Active
CO[C@H]1/C=C/O[C@@]2(C)Oc3c(C)c(O)c4c(O)c(c(/C=N/N5CCN(C)CC5)c(O)c4c3C2=O)NC(=O)/C(C)=C\C=C\[C@H](C)[C@H](O)[C@@H](C)[C@@H](O)[C@@H](C)[C@H](OC(C)=O)[C@@H]1C [RIFAMPIN] |  |  | inactive | 128 (≈ 156 µM) | < 0.06 | 128 (≈ 156 µM) | < 0.06 | < 0.06 | < 0.06 | < 0.06 | < 0.06 | < 0.06 | < 0.06 | < 0.06 | Active | MIC [6]: < 0.06 µg/mL; MIC [23]: 128 µg/mL (≈ 156 µM); MIC [7]: 128 µg/mL (≈ 156 µM); MIC [18]: 128 µg/mL (≈ 156 µM); MIC [24]: 32 µg/mL (≈ 38.9 µM); MIC [19]: 128 µg/mL (≈ 156 µM); MIC [20]: 128 µg/mL (≈ 156 µM); MIC [21]: 128 µg/mL (≈ 156 µM)
